A short description of experiment [1]: Displacement of [125I]CGRP form CGRP receptor in human SK-N-MC cell membrane by competitive binding assay.
Experiment [2] in a line: Displacement of [125I]CGRP form CGRP receptor in human SK-N-MC cell membrane by competitive binding assay in the absence of MgCl2.

For the compound `CC(C)C[C@H](NC(=O)CNC(=O)[C@H](C)NC(=O)[C@H](CC(C)C)NC(=O)[C@H](CCCN=C(N)N)NC(=O)[C@H](Cc1cnc[nH]1)NC(=O)[C@@H](NC(=O)[C@@H](NC(=O)[C@H](CS)NC(=O)[C@@H](NC(=O)[C@H](C)NC(=O)[C@@H](NC(=O)[C@H](CC(=O)O)NC(=O)[C@H](CS)NC(=O)[C@H](C)N)[C@@H](C)O)[C@@H](C)O)C(C)C)[C@@H](C)O)C(=O)N[C@@H](CC(C)C)C(=O)N[C@@H](CO)C(=O)N[C@@H](CCCN=C(N)N)C(=O)N[C@@H](CO)C(=O)NCC(=O)NCC(=O)N[C@H](C(=O)N[C@H](C(=O)N[C@@H](CCCCN)C(=O)N[C@@H](CC(N)=O)C(=O)N[C@@H](CC(N)=O)C(=O)N[C@@H](Cc1ccccc1)C(=O)N[C@H](C(=O)N1CCC[C@H]1C(=O)N[C@H](C(=O)N[C@@H](CC(N)=O)C(=O)N[C@H](C(=O)NCC(=O)N[C@@H](CO)C(=O)N[C@@H](CCCCN)C(=O)N[C@@H](C)C(=O)N[C@@H](Cc1ccccc1)C(N)=O)C(C)C)[C@@H](C)O)C(C)C)C(C)C)C(C)C`, the Ki in experiment [1] and in experiment [2] was 0.01 nM throughout.

Usually Ki stands for a measure of affinity in units of concentration, obtained from inhibition or displacement. A higher Ki goes with weaker binding.

(Values after BindingDB's records for doi:10.1016/j.bmcl.2011.09.056 (Merck Research Laboratories, 2011).)
